Assay results as given in patent publication US20150225454A1, “TETRABRANCHED PEPTIDES AND ANALOGUES AS A NEW CLASS OF ANTIMICROBIALS AND THEIR PREPARATION THEREOF” (priority 2012, published 2015).
Converted amounts (≈) assume the structure as drawn. Where two headings read alike, the source gives them in different places. Where a SMILES comes first, the peptide text is derived from it. Bridges are numbered along the chain shown (N, C = ends). Roman numbers before positions name the chains, in order.

Key:
[1] = Calcein release from fungal model membrane SUVs; conditions: peptide:lipid ratio 1:30 and 1:15
Protocol: For the preparation of PC/PE/PI or PS/Erg SUV, the lipids were dissolved in chloroform/methanol (2:1, v/v) in a glass tube. Ergosterol was dissolved in same solvent and added to lipid mixture to make final ergosterol content of 15 wt %. The Lipid-ergosterol mixture was dried using nitrogen gas to form lipid layer. The film was hydrated in a buffer containing 20 mM PBS (pH 7), vortexed and sonicated. Each cycle of sonication (5 sec, 40° C.) is followed by freezing in liquid nitrogen and thawing on a water bath kept at 37° C. The procedure was repeated 5-6 times until an optically clear dispersion appeared. The SUV was divided into two parts. To the first part 50 mM calcein was added and incubated for 1 h. The excess calcein was removed by injecting 100 μL of the calcein-loaded SUV's into a Ultrahydrogel™ 250 (7.8 mm×300 mm) column equilibrated with 20 mM PBS (pH 7.0) and eluted isochratically at a flow rate of 1 ml/min for 1.5 column volumes. The calcein-loaded liposomes were mixed with calcein-free liposome (1:1) to adjust final liposome concentration. Peptide concentration was added to obtain 1:30 or 1:15 peptide:liposome ratio. Changes in the fluorescence signal after addition of peptide or Triton X-100 was measured on a PTI spectrofluorometer, using an excitation wavelength of 480 nm and emission wavelength of 512 nm. The Percentage calcein released at each time point was calculated using the equation: […]
Similar protocol was followed for the preparation of PC/Cholesterol SUVs.

[2] = test system: C. albicans 2672R and C. albicans 1976R; assay type: cell-based; conditions: two clinical isolates
Protocol: The effect of 5% human serum on the activities of B4010 against two C. albicans clinical isolates was determined. The human male serum was centrifuged at 13,000 rpm for 10 mins in order to remove the lipids and the supernatant was collected. The MIC values against clinical isolates of C. albicans 2672R and C. albicans 1976R were determined both in standard medium (SD broth) as well as in standard medium containing 5% serum supernatant as before.

C. albicans [3] = experiment: diS-C3-5 membrane depolarisation assay; assay type: cell-based
Protocol: Change in membrane potential of C. albicans upon addition of B4010 was monitored by the release of potential sensitive probe diS-C3-5 dye. Briefly, 1 ml of overnight grown mid-log phase Candida cells in 5 mM HEPES buffer (pH 7.0) was mixed with 10 μM diS-C3-5 dye and incubated at 37° C. for 1-2 h in a thermo shaker. 800 μL of the dye-loaded cell suspension was transferred to a stirred quartz cuvette and the change in fluorescence intensity was monitored at an emission wavelength (λem) of 670 nm (excitation wavelength, 622 nm) using a Quanta Master spectrofluorimeter (Photon Technology International, NJ, USA). The excitation and emission bandwidths were set at 1 and 2 nm, respectively. Once a constant fluorescence level was achieved, 10 μL of concentrated peptide solution in HEPES buffer was added so that the final concentration of peptide was 0.22-22 μM. The change in fluorescence intensity was monitored continuously for 1 or 2 h. To study the effects of energy poisons and ion-channel inhibitors, the additives were added prior to the addition of 5.5 μM B4010. The change in fluorescence intensity was monitored as before.

C. albicans [4] = experiment: ATP bioluminescence assay (extracellular ATP release); assay type: cell-based
Protocol: The extracellular ATP levels upon challenging C. albicans with B4010 were determined as reported before (Koshlukova et al., 1999). Cells (OD600≈0.6) were incubated […] with or without various additives for 2 hours at 37° C. with orbital shaking. […] Each tube was then centrifuged at 5000 g for 5 mins. Then 225 μL of boiling TE buffer (50 mM Tris, 2 mM EDTA, pH 7.8) was added to the 25 μl of the supernatant and mixed well. This mixture was boiled again for another 2 minutes and stored at 4° C. until further examination. 100 μL of a luciferin-luciferase ATP assay mixture was added to 100 μL of the supernatant and luminescence was monitored using the Infinite M200 microplate reader (Tecan Group Ltd., Switzerland). […] For dose-dependent studies, the concentration of the peptide was varied from 0.4-44 μM. The extracellular ATP concentration was determined from calibration curve obtained by ATP assay kit (Molecular Probes, OR, USA) as per the manufacturer's instruction.

C. albicans ATCC 10231 = experiment: Antifungal activity after incubation with trypsin; assay type: cell-based; conditions: trypsin:peptide 1:100, 37° C., up to 6 h
Protocol: For all the experiments, unless otherwise stated, ATCC 10231 strain was used. B4010 (1 mg/ml) was incubated with trypsin (enzyme:peptide ratio 1:100) at 37° C. 20 μL aliquot of this mixture was withdrawn at various time intervals (0.5, 1, 2, 4 and 6 h) and mixed with 1 μL of trypsin inhibitor. The antifungal activity of the peptide was determined by adding this mixture to 180 μl of inoculum and monitoring the growth at OD600 for 24 h. Similar experiments performed in the presence of trypsin/trypsin inhibitor (without B4010) were used as a positive control. For assessing the antifungal activity in tear fluid (TF), the peptide was dissolved in freshly collected rabbit TF and incubated at 37° C. for 6 h. After incubation, an equal volume of an overnight culture of C. albicans (˜10^6 CFU/ml) was mixed with peptides in tear fluid and incubated at 37° C. for 24 h. The final concentrations of the peptide were at 4.4, 8.8 and 22 μM. A 100 μL aliquot of serial dilutions (10^2 or 10^3 times) of this mixture were inoculated on a SD agar plate and then incubated for 48 h at 37° C. Culture alone and culture with 50% tear fluid served as the positive control. […]
The peptide B4010 was incubated with trypsin (trypsin:peptide ratio=1:100) at 37° C. An aliquot of this mixture was withdrawn at various time intervals, added to the C. albicans inoculum and the growth was monitored (FIG. 3C).

[5] = Acute in vivo toxicity in mice; design: species or system C57BL6 mice
Protocol: Acute toxicity of B4010 was assessed with C57BL6 (6-8 weeks old) wild type mice. Two healthy wild type mice were chosen for each route of administration. B4010 was delivered through intra-peritoneal (200 mg/kg) or (100 mg/kg) intra-venous routes. Two animals were used for each administration and monitored through 24/48 h to determine mortality, or signs of toxicity.

Q: Which results are given for `CC(C)[C@H](NC(=O)[C@H](CCCCN)NC(=O)[C@H](CCCNC(=N)N)NC(=O)CNC(=O)[C@@H](N)CCCNC(=N)N)C(=O)N[C@H](C(=O)N[C@@H](CCCNC(=N)N)C(=O)N[C@@H](CCCNC(=N)N)C(=O)NCCCC[C@H](NC(=O)[C@H](CCCNC(=N)N)NC(=O)[C@H](CCCNC(=N)N)NC(=O)[C@@H](NC(=O)[C@@H](NC(=O)[C@H](CCCCN)NC(=O)[C@H](CCCNC(=N)N)NC(=O)CNC(=O)[C@@H](N)CCCNC(=N)N)C(C)C)C(C)C)C(=O)NCCCC[C@H](NC(=O)[C@H](CCCCNC(=O)[C@H](CCCNC(=N)N)NC(=O)[C@H](CCCNC(=N)N)NC(=O)[C@@H](NC(=O)[C@@H](NC(=O)[C@H](CCCCN)NC(=O)[C@H](CCCNC(=N)N)NC(=O)CNC(=O)[C@@H](N)CCCNC(=N)N)C(C)C)C(C)C)NC(=O)[C@H](CCCNC(=N)N)NC(=O)[C@H](CCCNC(=N)N)NC(=O)[C@@H](NC(=O)[C@@H](NC(=O)[C@H](CCCCN)NC(=O)[C@H](CCCNC(=N)N)NC(=O)CNC(=O)[C@@H](N)CCCNC(=N)N)C(C)C)C(C)C)C(=O)N[C@@H](CCCCN)C(=O)O)C(C)C` [Peptide B4010] (I: H-RGRKVVRRKKK-OH / II: H-RGRKVVRRK / III: H-RGRKVVRR / IV: H-RGRKVVRR; amide I:9-IV:C, I:10-II:C, II:9-III:C; N-terminus and C-terminus assumed)?
A: calcein release [1]: about 68%; MIC ([2]; 5% human serum): 5.5 µM (≈ 25.1 µg/mL); MIC ([2]; without serum): 0.34 µM (≈ 1.55 µg/mL); reduction in fluorescence intensity in azide-treated cells compared to control cells (C. albicans [3]; 5 mM NaN3 before B4010): ~25 fold; time course of depolarization (C. albicans [3]; upon addition of B4010): occurred instantaneously; time to maximum ATP efflux (C. albicans [4]; 4×MIC): ≤ 30 min; concentration of maximum ATP release (C. albicans [4]; dose-dependent study): around 4 ×MIC; antifungal activity after trypsin incubation (C. albicans ATCC 10231): No loss of antifungal activity; mortality, morbidity or toxicity ([5]; IP 200 mg/kg): no sign of mortality, morbidity or toxicity; mortality, morbidity or toxicity ([5]; IV 100 mg/kg): no sign of mortality, morbidity or toxicity
